Counter-ions that a name gives are not always drawn.

In data set [1] the target is T1, cloned human 5-HT6 receptor (Homo sapiens, UniProt P50406).
T1 construct: host or cells: HeLa cells (G-418 selection), membrane preparation
Kind of data set: 5-HT6 receptor binding assay ([3H]-LSD radioligand, SPA beads, Hela cell membranes). The following applies: IC50 converted to Ki by the Cheng-Prusoff equation. On the procedure: Harvested intact cells are washed once in cold phosphate-buffered saline. The cells are pelleted and resuspended in 100 ml of cold 50 mM Tris, 5 mM EDTA and 5 mM EGTA, pH 7.4. Homogenization is with a Vir Tishear generator, 4 cycles for 30 seconds each at setting 50. The homogenized cells are centrifuged at 700 RPM (1000×g) for 10 minutes and the supernatant is removed. […] The rehomogenized cells are then centrifuged at 700 RPM (1000×g) for 10 minutes and the supernatant is removed. […] The membrane pellet is resupended in 50-8-ml of assay buffer containing HEPES 20 mM, MgCl2 10 mM, NaCl 150 mM, EDTA 1 mM, pH 7.4 and stored frozen in aliqouts at −70° C.
The radioligand binding assay used [^3H]-lysergic acid diethylamide (LSD). The assay is carried out in Wallac 96-well sample plates by the addition of 11 μl of the test sample at the appropriate dilution (the assay employed 11 serial concentrations of samples run in duplicate), 11 μl of radioligand, and 178 μl of a washed mixture of WGA-coated SPA beads and membranes in binding buffer. The plates are shaken for about 5 minutes and then incubated at room temperature for 1 hour. The plates are then loaded into counting cassettes and counted in a Wallac MicroBeta Trilux scintillation counter.
Eleven serial dilutions of test compounds are distributed to assay plates using the PE/Cetus Pro/Pette pipetter. […]

T1 sequence (P50406 whole entry): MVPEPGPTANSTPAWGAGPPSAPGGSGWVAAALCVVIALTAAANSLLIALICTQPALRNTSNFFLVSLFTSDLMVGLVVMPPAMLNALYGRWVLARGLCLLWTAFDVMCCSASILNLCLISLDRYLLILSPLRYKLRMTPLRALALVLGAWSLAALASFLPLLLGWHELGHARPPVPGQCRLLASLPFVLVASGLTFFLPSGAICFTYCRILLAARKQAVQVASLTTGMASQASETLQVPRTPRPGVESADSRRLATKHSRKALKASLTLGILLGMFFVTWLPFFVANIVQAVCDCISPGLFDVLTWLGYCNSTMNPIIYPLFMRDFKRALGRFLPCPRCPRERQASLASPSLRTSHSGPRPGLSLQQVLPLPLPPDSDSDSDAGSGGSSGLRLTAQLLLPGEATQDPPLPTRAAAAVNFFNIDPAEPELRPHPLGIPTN

What is called melting point is the temperature, or range, at which the solid turns liquid. `CNc1cc(N2CCCNCC2)ccc1S(=O)(=O)c1cccc(F)c1` (as salt: HCl) gave a melting point of 153 to 154 °C.

Compound `Nc1cc(N2CCCNCC2)ccc1S(=O)(=O)c1cccc(F)c1` (as salt: hydrochloride) [Example 2, 5-(1,4-diazepan-1-yl)-2-[(3-fluorophenyl)sulfonyl]phenylamine] registered a melting point of 106 to 108 °C.

For the compound `Nc1cc(N2CCNCC2)ccc1S(=O)(=O)c1ccccc1` (as salt: salt) [Example 1, 2-(phenylsulfonyl)-5-(1-piperazinyl)phenylamine], the melting point lay in the range of 165 to 166 °C.

The compound `CCNc1cc(N2CCNCC2)ccc1S(=O)(=O)c1ccccc1` (as salt: salt) [Example 13, N-ethyl-2-(phenylsulfonyl)-5-(1-piperazinyl) phenylamine] returned a melting point of 121 to 123 °C.

With `Nc1cc(N2CCNCC2)ccc1S(=O)(=O)c1ccc(F)cc1` [Example 3, 2-[(4-fluorophenyl)sulfonyl]-5-(1-piperazinyl) phenylamine], the melting point was 144 to 146 °C.

On to `CN1CCN(c2ccc(S(=O)(=O)c3ccc(F)cc3)c(N)c2)CC1` [Example 4, 2-[(4-fluorophenyl)sulfonyl]-5-(4-methyl-1-piperazinyl) phenylamine], for which the melting point was 85 to 89 °C.

As for `Cc1ccc(S(=O)(=O)c2ccc(N3CCNCC3)cc2N)cc1` [Example 5, 2-[(4-methylphenyl)sulfonyl]-5-(1-piperazinyl) phenylamine], the melting point lay within 102 to 106 °C.

In turn, `Cc1ccc(S(=O)(=O)c2ccc(N3CCN(C)CC3)cc2N)cc1` [Example 6, 2-[(4-methylphenyl)sulfonyl]-5-(4-methyl-1-piperazinyl) phenylamine] came in with a melting point of 148 to 151 °C.

On to `CN1CCN(c2ccc(S(=O)(=O)c3ccccc3)c(N)c2)CC1` [Example 7, 5-(4-methyl-1-piperazinyl)-2-(phenylsulfonyl) phenylamine], for which the melting point is 90 to 93 °C.

In turn, `CN1CCN(c2ccc(S(=O)(=O)c3cccc(F)c3)c(N)c2)CC1` [Example 8, 2-[(3-fluorophenyl)sulfonyl]-5-(4-methyl-1-piperazinyl) phenylamine] yielded a melting point of 89 to 92 °C.

By Ki is commonly meant a measure of affinity in units of concentration, obtained from inhibition or displacement. The low end stands for a stronger hold on the target, the high end for a looser hold on the target. As for `CCNc1cc(N2CCNCC2)ccc1S(=O)(=O)c1ccccc1` [Example 13, N-ethyl-2-(phenylsulfonyl)-5-(1-piperazinyl) phenylamine], the Ki in data set [1] turned out to be 2.7 nM.
